# Tested on: NOMO1
# Assay: cell viability relative to DMSO control; higher = less cytotoxic
# Settings: 48 h
# Method in brief: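 NOMO1 or SEM (500 cells/well) or P12-Ichikawa (1000 cells/well) leukemia cells were adapted for at least four passages in each medium. They were seeded in 1536-well plates (5 μl) and pin-dosed with library compounds in DMSO over an 11-point threefold series, 47 μM to 0.79 nM. CellTiter-Glo One luminescence was read after 48 h at 37°C. Viability is the per-plate percentage relative to DMSO wells, with cell-free wells as background.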
# [1] = HPLM + 10% dialyzed FBS, 0.000781 µM
# [2] = HPLM + 10% dialyzed FBS, 0.00234 µM
# [3] = HPLM + 10% dialyzed FBS, 0.00702 µM
# [4] = HPLM + 10% dialyzed FBS, 0.0211 µM
# [5] = HPLM + 10% dialyzed FBS, 0.0632 µM
# [6] = HPLM + 10% dialyzed FBS, 0.19 µM
# [7] = HPLM + 10% dialyzed FBS, 0.569 µM
# [8] = HPLM + 10% dialyzed FBS, 1.71 µM
# [9] = HPLM + 10% dialyzed FBS, 5.12 µM
# [10] = HPLM + 10% dialyzed FBS, 15.4 µM
# [11] = HPLM + 10% dialyzed FBS, 46.1 µM
# [12] = RPMI 5 mM glucose + 10% FBS, 0.000781 µM
# [13] = RPMI 5 mM glucose + 10% FBS, 0.00234 µM
# [14] = RPMI 5 mM glucose + 10% FBS, 0.00702 µM
# [15] = RPMI 5 mM glucose + 10% FBS, 0.0211 µM
# [16] = RPMI 5 mM glucose + 10% FBS, 0.0632 µM
# [17] = RPMI 5 mM glucose + 10% FBS, 0.19 µM
# [18] = RPMI 5 mM glucose + 10% FBS, 0.569 µM
# [19] = RPMI 5 mM glucose + 10% FBS, 1.71 µM
# [20] = RPMI 5 mM glucose + 10% FBS, 5.12 µM
# [21] = RPMI 5 mM glucose + 10% FBS, 15.4 µM
# [22] = RPMI 5 mM glucose + 10% FBS, 46.1 µM
# [23] = RPMI 5 mM glucose + 10% dialyzed FBS, 0.000781 µM
# [24] = RPMI 5 mM glucose + 10% dialyzed FBS, 0.00234 µM
# [25] = RPMI 5 mM glucose + 10% dialyzed FBS, 0.00702 µM
# [26] = RPMI 5 mM glucose + 10% dialyzed FBS, 0.0211 µM
# [27] = RPMI 5 mM glucose + 10% dialyzed FBS, 0.0632 µM
# [28] = RPMI 5 mM glucose + 10% dialyzed FBS, 0.19 µM
# [29] = RPMI 5 mM glucose + 10% dialyzed FBS, 0.569 µM
# [30] = RPMI 5 mM glucose + 10% dialyzed FBS, 1.71 µM
# [31] = RPMI 5 mM glucose + 10% dialyzed FBS, 5.12 µM
# [32] = RPMI 5 mM glucose + 10% dialyzed FBS, 15.4 µM
# [33] = RPMI 5 mM glucose + 10% dialyzed FBS, 46.1 µM
SMILES,cell viability [1],cell viability [2],cell viability [3],cell viability [4],cell viability [5],cell viability [6],cell viability [7],cell viability [8],cell viability [9],cell viability [10],cell viability [11],cell viability [12],cell viability [13],cell viability [14],cell viability [15],cell viability [16],cell viability [17],cell viability [18],cell viability [19],cell viability [20],cell viability [21],cell viability [22],cell viability [23],cell viability [24],cell viability [25],cell viability [26],cell viability [27],cell viability [28],cell viability [29],cell viability [30],cell viability [31],cell viability [32],cell viability [33]
CNC(=O)[C@H](CC/1=C/N=C\2/C=C\C\C=C12)NC(=O)[C@H](CC(C)C)CC(=O)NO,108%,102%,113%,111%,120%,124%,123%,88.3%,78.6%,25.4%,25.6%,99.5%,109%,89.2%,102%,113%,103%,97%,97.3%,97.4%,11.9%,14.1%,114%,124%,112%,111%,120%,113%,109%,113%,112%,21.1%,22.5%
CCOC1=CC=CC=C1N\2C(=O)C3=C(C=CC=C3)\N=C2C(C)N4CCN(CC4)C(=O)COC5=CC=C(Cl)C=C5 (configuration not stated),,,,,,,,,,,,116%,115%,132%,112%,131%,127%,119%,37.8%,10.4%,5.57%,3.82%,,,,,,,,,,,
Cc1ccc2c(c1)c1c(n2CCc2ccc(C)nc2)CCN(C)C1,126%,115%,111%,130%,128%,130%,141%,134%,141%,153%,127%,,,,,,,,,,,,,,,,,,,,,,
O.O.CCN1CCN(C(=O)N[C@H](C(=O)N[C@H]2[C@@H]3SC\C(=C(/N3C2=O)C(O)=O)CSC4=NN=N[N]4C)C5=CC=C(O)C=C5)C(=O)C1=O,77.3%,86.9%,106%,29.4%,106%,98.8%,110%,104%,101%,89.8%,115%,81.4%,93.8%,88.5%,19.5%,95.2%,100%,111%,109%,101%,111%,113%,77.5%,92.9%,93.5%,32%,100%,96.1%,100%,101%,92.4%,102%,107%
O=[S+]([O-])(c1cccc2cnccc12)N1CCCNCC1,98.7%,124%,136%,136%,132%,147%,139%,136%,130%,116%,51%,,,,,,,,,,,,,,,,,,,,,,
C[C@H]1COC/2=C1/C(=O)C(=O)C3=C4CCCC(C)(C)C4=CC=C23,114%,131%,121%,116%,154%,146%,137%,163%,158%,132%,134%,,,,,,,,,,,,123%,129%,120%,136%,135%,129%,148%,156%,141%,134%,151%
NC(=O)NO,88.2%,102%,110%,110%,116%,100%,88.9%,84.9%,16.6%,3.7%,2.4%,83.9%,90.8%,85.6%,88.7%,86.1%,90.2%,90.8%,94.6%,37.3%,10.4%,1.27%,81.9%,90.4%,92.6%,95.3%,98%,87.2%,91.1%,96%,33%,10%,1.29%
CC(C)(O)c1cc2nc(-c3cnc(N)nc3)nc(N3CCOCC3)c2s1,,,,,,,,,,,,123%,121%,107%,121%,110%,104%,104%,88.7%,76.6%,63.1%,67.5%,121%,125%,114%,105%,98.2%,85.8%,83.3%,60.8%,53.4%,46.8%,51.8%
N#C/C(C(=O)c1ccc(Cl)cc1Cl)=C1/NC(=O)c2ccc(Cl)cc2N1,117%,108%,122%,128%,130%,117%,114%,105%,109%,102%,106%,105%,119%,111%,109%,105%,111%,103%,102%,94.5%,95.1%,98.2%,113%,114%,114%,104%,118%,114%,107%,103%,110%,103%,105%
C#CCN[C@@H]1CCc2ccccc21.CS(=O)(=O)O,107%,93.4%,108%,109%,91.7%,90.3%,96%,82.6%,93.9%,71.3%,43.2%,89.6%,97%,92.7%,87.9%,94%,88.1%,91.1%,84.2%,84.2%,96.5%,67.2%,86.1%,99.9%,105%,99.8%,106%,101%,93.7%,107%,85.1%,90.6%,81.8%

# — the supplement of paper PMC11451515
